Measured values published in ChEMBL document CHEMBL1152671, “Structure-activity relationship studies of manzamine A: amidation of positions 6 and 8 of the beta-carboline moiety” (Bioorg Med Chem, 2009).
In brackets after ≈: the same amount, converted by molar mass. Activity calls are given as the source filed them. The calls are words filed in the database; no cut-off is given here.

What was measured:
[1] = system: Plasmodium falciparum; experiment: Antimalarial activity against chloroquine-sensitive Plasmodium falciparum D6 infected in African green monkey (Cercopithecus aethiops) Vero cells assessed as parasite LDH activity after 72 hrs; type: functional, organism-based
[2] = system: Plasmodium falciparum; experiment: Antimalarial activity against chloroquine-resistant Plasmodium falciparum W2 infected in African green monkey (Cercopithecus aethiops) (Cercopithecus aethiops) Vero cells assessed as parasite LDH activity after 72 hrs; type: functional, organism-based
[3] = system: Vero; experiment: Cytotoxicity against african green monkey Vero cells up to 470 nM by neutral red assay; type: cell-based; details: chlorocebus sabaeus
[4] = system: Candida albicans; experiment: Antifungal activity against Candida albicans by modified NCCLS method; type: functional, organism-based
[5] = system: Mycobacterium intracellulare; experiment: Antibacterial activity against Mycobacterium intracellular by alamar blue assay; type: functional, organism-based
[6] = system: Mycobacterium intracellulare; experiment: Antibacterial activity against Mycobacterium intracellular after 24 hrs by alamar blue assay; type: functional
[7] = system: Aspergillus fumigatus; experiment: Antifungal activity against Aspergillus fumigatus by modified NCCLS method; type: functional, organism-based
[8] = system: Escherichia coli; experiment: Antibacterial activity against Escherichia coli by modified NCCLS method; type: functional, organism-based
[9] = system: Pseudomonas aeruginosa; experiment: Antibacterial activity against Pseudomonas aeruginosa by modified NCCLS method; type: functional, organism-based
[10] = system: Candida albicans
Description: Antifungal activity against Candida albicans after 24 hrs by alamar blue assay

[11] = system: Aspergillus fumigatus
Description: Antifungal activity against Aspergillus fumigatus after 24 hrs by alamar blue assay

[12] = system: Cryptococcus neoformans; experiment: Antifungal activity against Cryptococcus neoformans by modified NCCLS method; type: functional, organism-based
[13] = system: Cryptococcus neoformans; experiment: Antifungal activity against Cryptococcus neoformans after 24 hrs by alamar blue assay; type: functional
[14] = Cryptococcus neoformans, read-out: IC50

SMILES	IC50 [1] [nM]	IC50 [2] [nM]	Activity [3]	IC50 ([4]; Candida albicans, read-out: IC50) [nM]	IC50 [5] [nM]	MIC [6] [µM]	IC50 ([7]; Aspergillus fumigatus, read-out: IC50) [nM]	Activity [8]	Activity [9]	MIC [10]	MIC [11]	IC50 [4]	IC50 [12]	MIC [13]	IC50 [7]	IC50 [12, 14] [nM]
CCC(=O)Nc1cccc2c1[nH]c1c(C3=C[C@@]4(O)CC/C=C\CCCCN5CC[C@@H]3[C@]3(C[C@@H]6/C=C\CCCCN6[C@H]34)C5)nccc12 [8-N-PROPAMIDOMANZAMINE A]	123	87	Non-toxic	> 32300	1520	2.02 (≈ 1.25 µg/mL)	> 32300	inactive	inactive	inactive	inactive	–	–	–	–	–
CCCCC(=O)Nc1ccc2[nH]c3c(C4=C[C@@]5(O)CC/C=C\CCCCN6CC[C@@H]4[C@]4(C[C@@H]7/C=C\CCCCN7[C@H]45)C6)nccc3c2c1 [6-N-PENTAMIDOMANZAMINE A]	1240	1480	Non-toxic	–	2320	3.86 (≈ 2.5 µg/mL)	–	inactive	inactive	inactive	inactive	Not Active	Not Active	inactive	Not Active	–
CCCCCCC(=O)Nc1ccc2[nH]c3c(C4=C[C@@]5(O)CC/C=C\CCCCN6CC[C@@H]4[C@]4(C[C@@H]7/C=C\CCCCN7[C@H]45)C6)nccc3c2c1 [6-N-OCTAMIDOMANZAMINE A]	696	754	Non-toxic	–	17400	29 (≈ 19.6 µg/mL)	–	inactive	inactive	inactive	inactive	Not Active	Not Active	inactive	Not Active	–
CCCCCC(=O)Nc1ccc2[nH]c3c(C4=C[C@@]5(O)CC/C=C\CCCCN6CC[C@@H]4[C@]4(C[C@@H]7/C=C\CCCCN7[C@H]45)C6)nccc3c2c1 [6-N-HEXAMIDOMANZAMINE A]	680	786	Non-toxic	–	15100	30.2 (≈ 20 µg/mL)	–	inactive	inactive	inactive	inactive	Not Active	Not Active	inactive	Not Active	–
O=C(Nc1cccc2c1[nH]c1c(C3=C[C@@]4(O)CC/C=C\CCCCN5CC[C@@H]3[C@]3(C[C@@H]6/C=C\CCCCN6[C@H]34)C5)nccc12)C1CCCCC1 [8-CYCLOHEXAMIDOMANZAMINE A]	950	995	Non-toxic	–	11100	14.8 (≈ 10 µg/mL)	–	inactive	inactive	inactive	inactive	Not Active	Not Active	inactive	Not Active	–
CC(=O)Nc1cccc2c1[nH]c1c(C3=C[C@@]4(O)CC/C=C\CCCCN5CC[C@@H]3[C@]3(C[C@@H]6/C=C\CCCCN6[C@H]34)C5)nccc12 [8-ACETAMIDOMANZAMINE A]	182	231	Non-toxic	–	1650	2.06 (≈ 1.25 µg/mL)	–	inactive	inactive	inactive	inactive	Not Active	–	inactive	Not Active	33400
C[C@@H]1CC[C@H]2[C@@H](C)C(=O)O[C@@H]3O[C@@]4(C)CC[C@@H]1[C@]32OO4 [ARTEMISININ]	46	28	–	–	–	–	–	–	–	–	–	–	–	–	–	–
CC(C)(C)C(=O)Nc1cccc2c1[nH]c1c(C3=C[C@@]4(O)CC/C=C\CCCCN5CC[C@@H]3[C@]3(C[C@@H]6/C=C\CCCCN6[C@H]34)C5)nccc12 [8-PIVALAMIDOMANZAMINE A]	170	232	Non-toxic	–	540	0.973 (≈ 0.63 µg/mL)	–	inactive	inactive	inactive	inactive	Not Active	Not Active	inactive	Not Active	–
CCCCC(=O)Nc1cccc2c1[nH]c1c(C3=C[C@@]4(O)CC/C=C\CCCCN5CC[C@@H]3[C@]3(C[C@@H]6/C=C\CCCCN6[C@H]34)C5)nccc12 [8-N-PENTAMIDOMANZAMINE A]	53	49	Non-toxic	–	695	0.973 (≈ 0.63 µg/mL)	–	inactive	inactive	inactive	inactive	Not Active	–	inactive	Not Active	4630
